The results in this text go back to patent US8067424B2, “Selective inhibitors for cyclin-dependent kinases” (Emory University, priority 2007, dated 2011).

One may read the remaining activity as the signal under treatment as a percentage of the control signal. As a reminder, the IC50 is the concentration at which inhibition is half-maximal.

Where two headings read alike, the source gives them in different places.

Type in all cases: biochemical
The target in experiment [1] is PLK1 (Okadaic Acid) (Homo sapiens, UniProt P53350). Description: Kinase screen: PLK1 (Okadaic Acid) assay. On the procedure:
(§1) Generally, the same procedure was used for all assays. Since the total assay volume was 25.5 microliters, 0.5 microliters of inhibitors at 51× assay concentration were added to the plates before any other addition.
(§2) The basic procedure was to add 0.5 microliters inhibitor/control in DMSO to plate. Fifteen microliters of enzyme/substrate/buffer mix were added and incubated for 5 min. Ten microliters MgATP at the relevant concentration were added and incubated for 30 min. The assay was stopped by adding 5 microliters of 3% orthophosphoric acid. The assay was transferred to a p81 filter plate and read in a scintillation counter of 30 sec/well. Note that this assay procedure was not followed for MKK1, which instead involved a two-step assay, and PKC alpha, which required the addition of lipid vesicles.
(50-1000 cpm/pmole) and incubated for 30 min at room temperature. Assays were stopped by addition of 5 μl of 0.5 M (3%) orthophosphoric acid and then harvested onto P81 Unifilter plates with a wash buffer of 50 mM orthophosphoric acid.

In experiment [2] the target is CDK2-Cyclin A (Homo sapiens, UniProt P24941). Nature of the experiment: Kinase screen: CDK2/cyclin A assay. On the procedure:
Generally, the same procedure was used for all assays.
as §2
CDK2/cyclin A assay: CDK2/cyclin A (5-20 mU diluted in 50 mM Hepes pH 7.5, 1 mM DTT, 0.02% Brij35, 100 mM NaCl) was assayed against Histone H1 in a final volume of 25.5 μl containing 50 mM Hepes pH7.5, 1 mM DTT, 0.02% Brij35, 100 mM NaCl, Histone H1 (1 mg/ml), 10 mM magnesium acetate and 0.02 mM [33P-g-ATP] (500-1000 cpm/pmole) and incubated for 30 min at room temperature. Assays were stopped by addition of 5 μl of 0.5 M (3%) orthophosphoric acid and then harvested onto P81 Unifilter plates with a wash buffer of 50 mM orthophosphoric acid.

The target of experiment [3] is T1, SGK1 (Homo sapiens, UniProt O00141).
T1 sequence (O00141 1-431): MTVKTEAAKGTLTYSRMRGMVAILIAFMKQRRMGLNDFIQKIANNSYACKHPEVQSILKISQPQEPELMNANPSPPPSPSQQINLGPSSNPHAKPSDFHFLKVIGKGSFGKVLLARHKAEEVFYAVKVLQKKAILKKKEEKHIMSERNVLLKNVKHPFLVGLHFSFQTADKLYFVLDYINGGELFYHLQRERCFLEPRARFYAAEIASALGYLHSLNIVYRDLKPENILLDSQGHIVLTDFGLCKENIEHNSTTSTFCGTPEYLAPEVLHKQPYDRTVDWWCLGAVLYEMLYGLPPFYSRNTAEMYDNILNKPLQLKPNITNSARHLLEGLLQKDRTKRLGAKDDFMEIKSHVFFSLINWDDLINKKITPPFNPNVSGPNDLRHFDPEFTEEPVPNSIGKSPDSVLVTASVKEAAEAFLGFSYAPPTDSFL
Nature of the experiment: Kinase screen: SGK assay. On the procedure:
as §1, §2
SGK assay: SGK (5-20 mU diluted in 20 mM MOPS pH 7.5, 1 mM EDTA, 0.01% Brij35, 5% glycerol, 0.1% b-mercaptoethanol, 1 mg/ml BSA) was assayed against a modified Crosstide peptide […] (SEQ ID NO: 4) in a final volume of 25.5 μl containing 8 mM MOPS pH 7.0, 0.2 mM EDTA, 30 μM substrate peptide, 10 mM magnesium acetate and 0.02 mM [33P-g-ATP] (50-1000 cpm/pmole) and incubated for 30 min at room temperature. Assays were stopped by addition of 5 μl of 0.5 M (3%) orthophosphoric acid and then harvested onto P81 Unifilter plates with a wash buffer of 50 mM orthophosphoric acid.

Experiment [4] deals with T2, PKC zeta (Homo sapiens, UniProt Q05513).
T2 sequence (Q05513 1-592): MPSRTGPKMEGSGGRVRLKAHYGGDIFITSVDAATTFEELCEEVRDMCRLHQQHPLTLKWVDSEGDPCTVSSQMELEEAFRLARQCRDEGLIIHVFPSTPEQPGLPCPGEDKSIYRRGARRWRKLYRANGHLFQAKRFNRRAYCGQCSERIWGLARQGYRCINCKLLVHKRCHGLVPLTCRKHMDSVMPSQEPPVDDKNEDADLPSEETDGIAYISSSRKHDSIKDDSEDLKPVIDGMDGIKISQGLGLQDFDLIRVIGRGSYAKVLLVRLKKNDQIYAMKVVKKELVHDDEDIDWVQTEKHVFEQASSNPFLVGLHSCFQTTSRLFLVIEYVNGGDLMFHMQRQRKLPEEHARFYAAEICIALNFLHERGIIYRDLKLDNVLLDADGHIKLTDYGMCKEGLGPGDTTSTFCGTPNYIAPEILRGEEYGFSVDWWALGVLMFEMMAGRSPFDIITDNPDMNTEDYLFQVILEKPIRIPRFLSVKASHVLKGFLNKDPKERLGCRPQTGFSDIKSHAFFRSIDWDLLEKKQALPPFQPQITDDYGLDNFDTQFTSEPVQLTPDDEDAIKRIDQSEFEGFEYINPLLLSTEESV
Nature of the experiment: Kinase screen: PKC zeta assay. On the procedure: as §1, §2
PKC zeta assay: PKC zeta (5-20 mU diluted in 50 mM Tris pH 7.5, 0.1 mM EGTA, 0.1% b-mercaptoethanol, 1 mg/ml BSA, 100 μM Vanadate) was assayed against a substrate peptide ([…]) (SEQ ID NO: 34) in a final volume of 25.5 μl containing 50 mM Tris pH 7.5, 0.05% b-mercaptoethanol, 10 μM Vanadate, 300 μM substrate peptide, 10 mM magnesium acetate and 0.005 mM [33P-g-ATP] (50-1000 cpm/pmole) and incubated for 30 min at room temperature. Assays were stopped by addition of 5 μl of 0.5 M (3%) orthophosphoric acid and then harvested onto P81 Unifilter plates with a wash buffer of 50 mM orthophosphoric acid.

Experiment [5] concerns the target T3, IR-HIS (Homo sapiens, UniProt P06213).
T3 construct: His
Nature of the experiment: Kinase screen: IR-HIS assay. The settings on record: 10 micromolar compound; for remaining activity at 10 µM: read-out: mean activity remaining (as a percentage of the original activity), IR-HIS. On the procedure: as §1, §2
IR-HIS assay: IR-HIS (5-20 mU diluted in 50 mM Tris pH 7.5, 0.1 mM EGTA, 1 mg/ml BSA) was assayed against a substrate peptide ([…]) (SEQ ID NO: 36) in a final volume of 25.5 μl containing 50 mM Tris pH 7.5, 300 μM substrate peptide, 10 mM magnesium acetate and 0.02 mM [33P-g-ATP] (50-1000 cpm/pmole) and incubated for 30 min at room temperature. Assays were stopped by addition of 5 μl of 0.5 M (3%) orthophosphoric acid and then harvested onto P81 Unifilter plates with a wash buffer of 50 mM orthophosphoric acid.

Setting [6] is: 10 micromolar compound, read-out: mean activity remaining (as a percentage of the original activity), PLK 1 (Okadaic Acid).
The mark [7] stands for this setting: 10 micromolar compound, read-out: mean activity remaining (as a percentage of the original activity), CDK 2 - Cyelin A.
The mark [8] stands for this setting: 10 micromolar compound, read-out: mean activity remaining (as a percentage of the original activity), SGK1.
[9] abbreviates: 10 micromolar compound, read-out: mean activity remaining (as a percentage of the original activity), PKC zeta.

Chain of PLK1 (Okadaic Acid) (P53350 whole entry, species assumed): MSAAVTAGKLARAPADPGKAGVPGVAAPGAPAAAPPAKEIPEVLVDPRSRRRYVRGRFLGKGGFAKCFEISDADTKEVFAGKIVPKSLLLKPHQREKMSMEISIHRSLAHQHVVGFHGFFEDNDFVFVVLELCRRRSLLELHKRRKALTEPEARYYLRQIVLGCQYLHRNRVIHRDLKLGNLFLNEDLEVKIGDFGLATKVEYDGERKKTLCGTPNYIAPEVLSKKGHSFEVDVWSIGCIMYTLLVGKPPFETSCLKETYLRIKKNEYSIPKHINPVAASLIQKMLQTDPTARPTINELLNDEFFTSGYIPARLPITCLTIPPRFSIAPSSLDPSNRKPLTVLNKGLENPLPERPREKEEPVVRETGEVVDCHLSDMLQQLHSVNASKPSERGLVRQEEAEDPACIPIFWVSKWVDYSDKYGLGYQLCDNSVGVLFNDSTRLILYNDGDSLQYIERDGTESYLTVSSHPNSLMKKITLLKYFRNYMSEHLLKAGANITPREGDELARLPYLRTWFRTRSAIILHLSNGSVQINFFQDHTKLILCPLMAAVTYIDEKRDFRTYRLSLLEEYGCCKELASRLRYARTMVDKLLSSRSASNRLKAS
T3 sequence (P06213 28-1382): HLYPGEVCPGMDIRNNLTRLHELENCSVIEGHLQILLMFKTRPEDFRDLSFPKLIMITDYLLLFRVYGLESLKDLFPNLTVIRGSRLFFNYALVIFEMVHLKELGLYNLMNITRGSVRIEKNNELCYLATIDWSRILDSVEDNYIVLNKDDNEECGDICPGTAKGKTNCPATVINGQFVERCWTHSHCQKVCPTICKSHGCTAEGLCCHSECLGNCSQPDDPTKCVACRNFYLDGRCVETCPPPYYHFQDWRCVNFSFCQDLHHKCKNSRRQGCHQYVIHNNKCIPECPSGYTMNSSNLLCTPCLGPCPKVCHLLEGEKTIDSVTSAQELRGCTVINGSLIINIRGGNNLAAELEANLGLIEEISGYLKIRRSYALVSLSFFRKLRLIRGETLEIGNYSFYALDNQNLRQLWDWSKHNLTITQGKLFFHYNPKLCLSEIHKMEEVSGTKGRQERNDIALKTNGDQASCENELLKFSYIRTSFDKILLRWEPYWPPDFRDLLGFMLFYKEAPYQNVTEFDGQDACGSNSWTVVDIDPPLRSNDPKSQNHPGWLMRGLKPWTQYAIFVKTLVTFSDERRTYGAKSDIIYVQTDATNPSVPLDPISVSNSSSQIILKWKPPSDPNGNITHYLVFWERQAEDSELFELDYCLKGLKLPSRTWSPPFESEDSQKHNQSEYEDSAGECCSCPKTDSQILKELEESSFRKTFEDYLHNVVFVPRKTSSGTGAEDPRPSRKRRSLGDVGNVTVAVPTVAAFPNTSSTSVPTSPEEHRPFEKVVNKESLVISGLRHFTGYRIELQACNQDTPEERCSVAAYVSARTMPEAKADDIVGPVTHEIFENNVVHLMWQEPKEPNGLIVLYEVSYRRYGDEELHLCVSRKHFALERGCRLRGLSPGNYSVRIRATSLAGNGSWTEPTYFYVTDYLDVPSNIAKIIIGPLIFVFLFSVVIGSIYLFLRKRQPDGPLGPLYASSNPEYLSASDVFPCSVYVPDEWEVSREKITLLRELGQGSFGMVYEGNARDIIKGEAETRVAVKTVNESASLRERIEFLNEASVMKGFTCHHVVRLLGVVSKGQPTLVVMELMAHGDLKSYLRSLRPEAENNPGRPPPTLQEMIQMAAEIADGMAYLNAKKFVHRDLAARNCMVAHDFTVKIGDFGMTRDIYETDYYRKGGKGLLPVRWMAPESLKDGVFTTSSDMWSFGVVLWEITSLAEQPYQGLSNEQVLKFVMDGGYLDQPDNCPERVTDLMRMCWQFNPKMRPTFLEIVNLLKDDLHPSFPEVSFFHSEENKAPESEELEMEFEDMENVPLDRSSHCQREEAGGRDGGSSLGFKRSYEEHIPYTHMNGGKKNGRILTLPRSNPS

Turning to `CC(C)c1cnn2c(NCc3ccccc3)cc(NCCCCCCCN)nc12` [BS-181], the remaining activity at 10 µM in experiment [1] (PLK1 (Okadaic Acid), 10 μM, read-out: Mean Remaining Enzyme Activity (%)) was 108%; in experiment [2] (CDK2-Cyclin A, 10 μM, read-out: Mean Remaining Enzyme Activity (%)), 9%; in experiment [3] (SGK1, 10 μM, read-out: Mean Remaining Enzyme Activity (%)) it was 42%; in experiment [4] (PKC zeta, 10 μM, read-out: Mean Remaining Enzyme Activity (%)) it was 114%. The same molecule came in with an IC50 in experiment [2] (kinase screen) of 750 nM.
As to `C=C[C@H](CO)Nc1cc(NCc2ccccc2)n2ncc(C(C)C)c2n1` [ICEC0065], the remaining activity at 10 µM in experiment [1] (setting [6]) was 104%; in experiment [5], 71%; in experiment [2] (setting [7]), 3%; in experiment [3] (setting [8]) it was 84%; in experiment [4] (setting [9]), 84%.
For `CC(C)c1cnn2c(NCc3ccccc3)cc(N[C@@H](CO)[C@H](O)CO)nc12` [ICEC0318, (3S)-3-(7-(Benzylamino)-3-isopropylpyrazolo[1,5-a]pyrimidin-5-ylamino)butane-1,2,4-triol], the remaining activity at 10 µM in experiment [1] (setting [6]) amounted to 97%; in experiment [5], 70%; in experiment [3] (setting [8]), 92%; in experiment [4] (setting [9]), 64%.
Take `CC(C)c1cnn2c(NCc3ccccc3F)cc(NCCCCCN)nc12` [ICEC-0232]: the “mean activity remaining (as a percentage of the original activity), PLK 1 (Okadaic Acid)” value in experiment [1] (10 micromolar compound) came out at 125%. Also, in experiment [5], the “mean activity remaining (as a percentage of the original activity), IR-HIS” value is 58%. Moreover, in experiment [2] (10 micromolar compound), the “mean activity remaining (as a percentage of the original activity), CDK 2 - Cyelin A” value amounted to 9%. Besides, the “mean activity remaining (as a percentage of the original activity), SGK1” value in experiment [3] (10 micromolar compound) came to 50%. Moreover, the “mean activity remaining (as a percentage of the original activity), PKC zeta” value in experiment [4] (10 micromolar compound) was 65%.
As to `CC[C@H](CO)Nc1cc(NCc2ccccc2)n2ncc(C(C)C)c2n1` [ICEC0067], the remaining activity at 10 µM in experiment [1] (setting [6]) was 93%; in experiment [5] it was 78%; in experiment [2] (setting [7]) it was 5%; in experiment [3] (setting [8]), 89%; in experiment [4] (setting [9]) it was 76%.
